The values that follow come from US7919495B2, “Pyridyl non-aromatic nitrogen-containing heterocyclic-1-carboxylate compound” (Astellas Pharma, Inc., priority 2005, dated 2011).

Structures are written as SMILES. Structures can show the parent of a compound that is named as a salt. Where two headings read alike, the source gives them in different places.

This experiment deals with T1, FAAH in human bladder epithelial cancer-derived cell line 5678 cells (Homo sapiens, UniProt O00519).
T1 construct: host or cells: human bladder epithelial cancer-derived cell line ('5678' [sic], HTB-9)
T1 sequence (O00519 1-579): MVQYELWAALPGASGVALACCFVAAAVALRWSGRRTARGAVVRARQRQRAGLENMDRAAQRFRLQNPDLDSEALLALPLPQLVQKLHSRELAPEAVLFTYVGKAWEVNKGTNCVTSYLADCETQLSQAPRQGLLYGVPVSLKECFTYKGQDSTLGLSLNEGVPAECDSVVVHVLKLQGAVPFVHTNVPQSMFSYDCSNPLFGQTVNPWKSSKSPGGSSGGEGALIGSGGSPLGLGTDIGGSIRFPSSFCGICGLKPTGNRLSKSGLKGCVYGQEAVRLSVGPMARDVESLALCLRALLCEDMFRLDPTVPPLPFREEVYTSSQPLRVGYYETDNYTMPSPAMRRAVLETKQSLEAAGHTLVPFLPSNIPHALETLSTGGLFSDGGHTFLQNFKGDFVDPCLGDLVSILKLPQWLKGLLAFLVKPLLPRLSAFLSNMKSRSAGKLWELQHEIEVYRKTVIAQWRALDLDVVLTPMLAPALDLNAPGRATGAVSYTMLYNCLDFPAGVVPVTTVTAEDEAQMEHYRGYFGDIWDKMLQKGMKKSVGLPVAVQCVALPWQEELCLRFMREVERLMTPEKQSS
In words: Screening for FAAH activity-inhibiting substance with human bladder epithelial cancer-derived cell (IC50, Table 64). Format: cell-based. The protocol: Screening for FAAH Activity-Inhibiting Substance with Human Bladder Epithelial Cancer-Derived Cell
(1) Screening for FAAH Activity-Inhibiting Substance:
Human bladder epithelial cancer-derived cell line […] cells (HTB-9; ATCC) were seeded on a 48-well cell culture plate in an amount of 1×10^5 cell/well, using 10% fetal bovine serum (HyClone)-containing RPMI1640 medium (Invitrogen). After incubated at 37° C. for at least 12 hours, the cells were washed with 400 μl/well of a buffer (Hank's Balanced Salt Solution, 20 mM Hepes-NaOH (pH 7.4)). A test substance dissolved in DMSO was added to a substrate solution (the above buffer containing 3 μCi/ml radiolabeled anandamide (Anandamide [ethanolamine 1-3H]) and 10 μM anandamide) so as to have a concentration of from 0.003 nM to 30 nM. As a control, DMSO alone was added. 100 μl/well of the substrate solution was added to the above cells, and incubated in a CO2 incubator at 37° C. for 30 minutes. Next, the cell culture plate was transferred onto ice, and the substrate solution was removed by suction; and 75 μl/well of a cytolytic solution (the above buffer containing 0.5% Triton X-100, and 10 μM of FAAH-inhibitory activity-having compound, 3′-carbamoylbiphenyl-3-yl cyclohexylcarbamate (URB597; Cayman chemical; Kathuria et al., Nature Med., Vol. 9, pp. 76-81, 2003)) was added thereto, followed by stirring. The resulting cell lysate in every well was individually transferred into a 1.5 ml sample tube, to which was added 150 μl of 1:1 (by volume) chloroform/methanol solution, followed by vortexing. This was centrifuged (15000 rpm, 2 minutes), whereby the decomposed product, ethanolamine (ethanolamine 1-^3H) was separated in the upper layer (water/methanol layer) and the unreacted radiolabeled anandamide was in the lower layer (chloroform layer). 25 μl of the upper layer was transferred into a 96-well organic solvent-resistant white microplate (PicoPlate-96; Perkin Elmer), 150 μl of Microscint-20 (Perkin Elmer) was added thereto, and this was measured with a microplate scintillation counter (TopCount™; Beckman). As compared with the control, the substance that gave a decreased value was selected as an FAAH activity-inhibiting substance.
(2) Measurement of IC50 Value of FAAH Activity-Inhibiting Substance:
A test compound dissolved in DMSO to have a concentration of 10 mM was dissolved in the substrate solution so as to have a varying concentration of from 0.003 nM to 30 μM. According to the method mentioned above, the compound was analyzed for its influence on FAAH activity. As a negative control, DMSO was used. As a positive control, URB597 was added to the substrate solution to have a concentration of 10 μM. Based on the measured value of the positive control, 0%, and on the measured value of the negative control, 100%, IC50 value of the test substance was obtained.

Consider `N#Cc1cccc(-c2cccc(CCC3CCN(C(=O)Oc4cncc(C(N)=O)c4)CC3)c2)c1` [Example 341], for which the IC50 turned out to be 0.078 nM.

With `O=C(Oc1cccnc1)N1CCC(Oc2ccc(OCCC3CCCCC3)cc2)CC1` [Example 207], half-maximal inhibition (IC50) was put at 0.31 nM. The molecule `NC(=O)c1cncc(OC(=O)N2CCC(CCCC3CCN(c4ccc5ccccc5n4)CC3)CC2)c1` [Example 380] returned a 50% inhibitory concentration (IC50) of 0.35 nM. Still for that read-out and setting: with `O=C(Oc1cccnc1)N1CCN(C(=O)c2cccc(OCC3CCCCC3)c2)CC1` [Example 122] the figure was 0.15 nM; with `O=C(Oc1cccnc1)N1CCC(Oc2ccc(OCc3cccc(Cl)c3)cc2)CC1` [Example 206, 3-pyridyl 4-{4-[(3-chlorobenzyl)oxy]phenoxy}-1-piperidinecarboxylate hydrochloride], 0.17 nM. `COC(=O)CCc1cncc(OC(=O)N2CCC(Oc3ccc(OCc4cccc(F)c4)cc3)CC2)c1` [Example 61] showed an IC50 of 0.35 nM.

`CC(=O)OCc1cncc(OC(=O)N2CCC(Oc3ccc(OCc4cccc(F)c4)cc3)CC2)c1` [Example 100]: 0.035 nM corresponded to half-maximal inhibition (IC50). The same measure, in the same setting: the result for `Cc1cccc(N2CCC(CCCC3CCN(C(=O)Oc4cncc(C(N)=O)c4)CC3)CC2)n1` [Example 378] reads 0.2 nM; that for `O=C(Oc1cccnc1)N1CCC(c2cccc(OCCCc3ccccc3)c2)CC1` [Example 113], 0.056 nM. In turn, `O=C(c1ccc(OCc2cccc(F)c2)cc1)C1CCN(C(=O)Oc2cccnc2)CC1` [Example 3] displayed an IC50 of 0.073 nM. Same read-out and setting: with `CCCCCCCCc1ccc(NC(=O)C2CCN(C(=O)Oc3cccnc3)CC2)cc1` [Example 176] the figure was 0.84 nM.

Molecule `O=C(Oc1cccnc1)N1CCC(Oc2ccc(OCc3ccccc3F)cc2)CC1` [Example 208] returned an IC50 of 0.13 nM.

With `CCN(CC)C(=O)c1ccc(CCC2CCN(C(=O)Oc3cncc(C(N)=O)c3)CC2)cc1` [Example 362], the IC50 was determined as 0.42 nM. The molecule `O=C(O)c1cncc(OC(=O)N2CCC(CCCC3CCN(c4ccc5ccccc5n4)CC3)CC2)c1` [Example 315] returned an IC50 of 0.51 nM. For `O=C(Oc1cccnc1)N1CCC(S(=O)(=O)c2ccc(OCc3cccc(F)c3)cc2)CC1` [Example 80], half-maximal inhibition (IC50) was put at 0.044 nM. On the same count and under the same terms, the result for `N#Cc1ccc(-c2ccc(CCC3CCN(C(=O)Oc4cncc(C(=O)O)c4)CC3)cc2)cc1` [Example 301] reads 0.4 nM. As for `CN(C)c1cncc(OC(=O)N2CCC(Oc3ccc(OCc4cccc(F)c4)cc3)CC2)c1` [Example 30], half-maximal inhibition (IC50) required 0.19 nM.

`N#Cc1ccc(-c2ccc(CCC3CCN(C(=O)Oc4cncc(C(N)=O)c4)CC3)cc2)cc1` [Example 344]: the half-inhibitory concentration (IC50) is 0.13 nM. On the same count and under the same terms, the result for `O=C(Oc1cccnc1)N1CCN(C(=O)c2ccc(OCc3ccc(F)cc3)cc2)CC1` [Example 155] reads 0.061 nM; that for `NC(=O)c1cncc(OC(=O)N2CCC(CCc3cccc(-c4ccccn4)c3)CC2)c1` [Example 349], 0.054 nM; that for `NC(=O)c1cncc(OC(=O)N2CCC(CCc3cccc(C(=O)NC4CCCCC4)c3)CC2)c1` [Example 351], 0.13 nM.

As to `NC(=O)c1cncc(OC(=O)N2CCC(CCc3ccc(-c4cccc(F)c4)cc3)CC2)c1` [Example 345], the IC50 came out at 0.18 nM. Same read-out and setting: the result for `NC(=O)c1cccc(-c2cncc(OC(=O)N3CCC(CCc4ccccc4)CC3)c2)c1` [Example 266] reads 0.31 nM; that for `N#Cc1cccc(CCC2CCN(C(=O)Oc3cncc(C(=O)NCCO)c3)CC2)c1` [Example 330], 0.53 nM; that for `O=C(Oc1cccnc1)N1CCN(C(=O)c2ccc(OCc3cccc(C(F)(F)F)c3)cc2)CC1` [Example 149], 0.45 nM.

`NC(=O)c1cncc(OC(=O)N2CCC(CCc3cccc(-c4ccccc4)c3)CC2)c1` [Example 340]: the IC50 was 0.052 nM. On the same count and under the same terms, the result for `NC(=O)c1cncc(OC(=O)N2CCC(CCc3ccc(-c4ccc(F)cc4)cc3)CC2)c1` [Example 338] reads 0.034 nM; that for `O=C(Oc1cccnc1)N1CCN(C(=O)c2ccc(OCc3cccc(Br)c3)cc2)CC1` [Example 159], 0.23 nM; that for `O=C(Oc1cccnc1)N1CCC(Oc2ccc(OCc3cccc(F)c3)cn2)CC1` [Example 103], 0.092 nM. Regarding `O=C(O)c1cncc(OC(=O)N2CCC(CCc3ccc(-c4ccccc4F)cc3)CC2)c1` [Example 304], the 50% inhibitory concentration (IC50) is 0.24 nM. On to `O=C(Oc1cccnc1)N1CCC(Sc2cccc(OCc3cccc(F)c3)c2)CC1` [Example 101], for which half-maximal inhibition (IC50) required 0.078 nM. The molecule `O=C(Oc1cccnc1)N1CCN(C(=O)c2ccc(OCc3cccc([N+](=O)[O-])c3)cc2)CC1` [Example 154] returned an IC50 of 0.17 nM.

Molecule `O=C(Oc1cccnc1)N1CCN(C(=O)c2cccc(OCc3cccc(Cl)c3)c2)CC1` [Example 138] registered an IC50 of 0.078 nM. The molecule `NC(=O)c1cncc(OC(=O)N2CCC(CCc3ccc(-c4ccccc4F)cc3)CC2)c1` [Example 346] came in with an IC50 of 0.27 nM. For the molecule `COc1cccc(CCC2CCN(C(=O)Oc3cncc(C(=O)NCCO)c3)CC2)c1` [Example 328], the IC50 was determined as 0.42 nM. Same read-out and setting: the result for `Cc1ccc(OC(=O)N2CCC(Oc3ccc(OCc4cccc(F)c4)cc3)CC2)cn1` [Example 13] reads 0.27 nM; that for `O=C(Oc1cccnc1)N1CCN(C(=O)c2ccc(OCc3cc(F)cc(F)c3)cc2)CC1` [Example 152], 0.18 nM. In the case of `O=C(Oc1cccnc1)N1CCC(Oc2ccc(OCc3ccccc3)cc2Cl)CC1` [Example 51], the IC50 was 0.26 nM. Same read-out and setting: with `COc1ccc(-c2ccc(CCC3CCN(C(=O)Oc4cncc(C(=O)O)c4)CC3)cc2)cc1` [Example 300] the figure was 0.43 nM; with `CC(C)NC(=O)c1cccc(CCC2CCN(C(=O)Oc3cncc(C(N)=O)c3)CC2)c1` [Example 372], 0.49 nM.

As to `O=C(Nc1ccccc1)C1CCN(C(=O)Oc2cccnc2)CC1` [Example 173], the IC50 (human bladder epithelial cancer-derived cell line 5678 cells, read-out: cell FAAH IC50) came out at 0.69 nM. Regarding `O=C(Oc1cncc(Cl)c1)N1CCC(Oc2ccc(OCc3cccc(F)c3)cc2)CC1` [Example 42], half-maximal inhibition (IC50) required 0.43 nM. `O=C(Oc1cccnc1)N1CCC(S(=O)(=O)c2ccc(OCc3ccccc3)cc2)CC1` [Example 88]: 0.37 nM corresponded to half-maximal inhibition (IC50). The same measure, in the same setting: with `O=C(O)c1cncc(OC(=O)N2CCC(CCc3ccc(-c4cccc(F)c4)cc3)CC2)c1` [Example 302] the figure was 0.17 nM; with `O=C(O)c1cncc(OC(=O)N2CCC(CCc3ccc(-c4ccccc4)cc3)CC2)c1` [Example 281], 0.082 nM. `N#Cc1cccc(-c2cccc(CCC3CCN(C(=O)Oc4cncc(C(=O)O)c4)CC3)c2)c1` [Example 294]: the IC50 was determined as 0.6 nM. The molecule `O=C(Oc1cccnc1)N1CCN(C(=O)c2ccc(OCCc3cccc(Cl)c3)cc2)CC1` [Example 160] yielded an IC50 of 0.51 nM.

As to `COc1cccc(-c2ccc(CCC3CCN(C(=O)Oc4cncc(C(=O)O)c4)CC3)cc2)c1` [Example 303], inhibition was half-maximal at 0.12 nM (IC50). On the same count and under the same terms, the result for `O=C(O)c1cncc(OC(=O)N2CCC(CCc3cccc(-c4ccccc4)c3)CC2)c1` [Example 293] reads 0.24 nM; that for `O=C(Oc1cccnc1)N1CCC(Oc2ccc(OCc3ccccc3)c(Cl)c2)CC1` [Example 70], 0.099 nM; that for `NC(=O)CCNC(=O)c1cncc(OC(=O)N2CCC(CCc3ccccc3)CC2)c1` [Example 333], 0.43 nM.

For orientation: IC50 means the midpoint of a concentration-inhibition curve.
